Results on one compound are retold here after publication PMC10036753, “Orally disintegrating tablets containing famotidine nanoparticles provide high intestinal absorbability via the energy-dependent endocytosis pathway” (Frontiers in Bioengineering and Biotechnology, 2023).

The test system of data set [1] is H2 receptors. The note with it: ref Hassan et al., 1990; Patel and Patel, 2013; cited from earlier work.
The conditions of data set [2]: without bead-milling treatment.
Description: First, 3 mL of each FAM dispersion were incubated in 5 mL test tubes in the dark at 20°C for 28 days. Images of the FAM dispersions were captured with a digital camera. The dispersions (50 μL) were withdrawn from 5 mm under the surface at the indicated time intervals (0, 7, 14, 21, and 28 days), and the FAM concentration was measured using the HPLC methods described above. In this study, the difference in FAM concentrations before and after the start of the experiment was estimated, and the changes in FAM levels on the surface were defined as the dispersibility of the FAM dispersions.
The conditions of data set [3]: oral, 40 mg daily; ref Lyon, 1986; Ramchandran et al., 2011; cited from earlier work.
The conditions of data set [4]: ref Khalifa and Abdul Rasool, 2017; cited from earlier work.
The nature of data set [5]: Pharmacokinetic study of FAM tablet in the rat. To be noted: Wistar, plasma, intravenous, single injection of FAM solution in DMSO (0.04 mg/kg) into the femoral vein. In kind it is in vivo, Wistar rats.
Description: FAM concentration was determined by HPLC using an LC-20AT HPLC system (Shimadzu Corp., Kyoto, Japan). A Luna® 5 µm C18 column (100 Å, 150 × 4.6 mm, GL Science Co., Inc., Tokyo, Japan) was used for the measurement, and the mobile phase [one-heptanesulfonic acid sodium salt/acetonitrile/methanol (25/6/1)] was followed at 0.25 mL/min. The sample was mixed with an internal standard (methyl p-hydroxybenzoate) in methanol and 10 µL of the mixture was injected into the HPLC system using an SIL-20AC HPLC auto injector. In this study, the FAM levels were measured at 254 nm (wavelength for detection).
Blood (200 μL) was collected from the right jugular vein at the indicated time intervals (0, 10, 20, 30, and 360 min). The collected blood was centrifuged at 800 × g for 15 min at 4°C, and the supernatant was used for measurement.
For data set [6] the following is noted: ref Jha et al., 2014; cited from earlier work.
Data set [7] in a line: Particle size distribution of FAM dispersions and redispersed FAM tablets (NanoSight LM10). In kind it is physicochemical. As for the experimental part:
The characterization of the FAM tablets and their redispersion were evaluated in accordance with our previous study ([Deguchi et al., 2021]; [Nagai et al., 2022]). Briefly, the shape and dimensions of the tablets were analyzed using ImageJ image analysis software 1.53. Hardness was measured using a Force Tester MCT-2150 (A&D Co., Ltd., Toshimaku, Japan), and friability was measured using an Oriental Reaction Motor (ORIENTAL MOTOR Co., Ltd., Tokyo, Japan). The disintegration of FAM tablets was evaluated using NT-2H (TOYAMA SANGO Co. Ltd., Osaka, Japan). The friability and disintegration of the FAM tablets were measured according to the Japanese Pharmacopoeia (18th edition). The FAM tablets were dispersed in 10 mL of purified water and the redispersion, solubility, viscosity, and intestinal penetration were measured. The particle distributions of the FAM dispersions and redispersed FAM tablets were measured by […] NanoSight LM10 (Quantum Design Japan, Tokyo, Japan), and the measurement time, wavelength, and viscosity were set to 60 s, 405 nm (blue) and 1.27 mPa s, respectively. Scanning electron microscopy (SEM) images were obtained using NeoScope™ JCM-7000 (JEOL Ltd., Tokyo, Japan). […] The viscosity of the redispersed FAM tablet was measured at 20°C–40°C using an SV-1A viscometer (A&D Company, Limited, Tokyo, Japan).

In the case of `NC(N)=Nc1nc(CSCCC(N)=NS(N)(=O)=O)cs1` [FAM, Famotidine], the “Inhibitory effect relative to cimetidine” value in data set [1] is given as 20 fold. The “Inhibitory effect relative to ranitidine” value in data set [1] is reported as 7.5 fold. Moreover, the “Time after preparation at which FAM was precipitated” value in data set [2] worked out at 24 h. Moreover, in data set [3], the Tolerability entry is listed as “well tolerated”. In addition, in data set [4], the BCS classification entry is listed as “class III”. In addition, in data set [5] (read-out: Distribution volume (V d)), the Vd was 0.064 L. In data set [5] (read-out: Elimination rate constant (k e) (converted)), the k el is 2.17e-05 s⁻¹. Further, in data set [6], the “Intestinal penetration after oral administration” value is listed as less than 50%. Moreover, the “Mean particle size of FAM” value was 108 ± 5.7 nm in data set [7] (dispersion with bead-milling treatment) and 23.7 ± 2.1 µm in data set [7] (dispersion without bead-milling treatment).
